Values quoted from earlier work as cited in patent publication US11253534B2, “Method of preventing COVID-19 infection” (priority 2020, dated 2022).

Conditions: in vivo

CCN(CCO)CCCC(C)Nc1ccnc2cc(Cl)ccc12 (stereo not shown) [hydroxychloroquine]
half-life: up to 32 days
